Reference: patent publication US8912206B2, “Pyrimidine ether derivatives and methods of use thereof” (Merck Sharp & Dohme Corp., priority 2009, dated 2014)

Biological target: T1, human GPR119 (Homo sapiens, UniProt Q8TDV5)
T1 construct: expressed in transfected cells; host or cells: HEK293
T1 sequence (Q8TDV5 1-335): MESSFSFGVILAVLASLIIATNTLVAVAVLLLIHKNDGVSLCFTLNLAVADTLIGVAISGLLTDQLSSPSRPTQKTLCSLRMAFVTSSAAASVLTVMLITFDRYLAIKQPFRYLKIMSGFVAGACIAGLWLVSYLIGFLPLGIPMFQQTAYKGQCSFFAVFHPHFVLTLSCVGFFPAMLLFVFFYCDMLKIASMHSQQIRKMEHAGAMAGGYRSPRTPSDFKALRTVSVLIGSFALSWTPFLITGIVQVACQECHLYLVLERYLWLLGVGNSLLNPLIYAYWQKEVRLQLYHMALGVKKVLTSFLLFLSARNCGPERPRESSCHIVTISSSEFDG
Assay: cAMP assay (LANCE cAMP kit), activation of GPR119
Format: cell-based
Details: HEK293 cells expressing human GPR119, 30 minutes incubation
Protocol: The ability of illustrative compounds of the invention to activate GPR119 and stimulate increases in cAMP levels was determined using the LANCE™ cAMP kit (Perkin Elmer). HEK293 cells expressing human GPR119 were maintained in culture flasks at 37° C./5% CO2 in DMEM containing 10% fetal bovine serum, 100 U/ml Pen/Strep, and 0.5 mg/ml geneticin. The media was changed to Optimem and cells were incubated for about 15 hours at 37° C./5% CO2. The Optimem was then aspirated and the cells were removed from the flasks using room temperature Hank's balanced saline solution (HBSS). The cells were pelleted using centrifugation (1300 rpm, 7 minutes, room temperature), then resuspended in stimulation buffer (HBSS, 0.1% BSA, 5 mM HEPES, 15 μM RO-20) at 2.5×10^6 cells/mL. Alexa Fluor 647-anti cAMP antibody (1:100) was then added to the cell suspension and incubated for 30 minutes. A representative Pyrimidine Ether Derivative (6 μl at 2× concentration) in stimulation buffer containing 2% DMSO were then added to white 384 well Matrix plates. Cell suspension mix (6 μl) was added to each well and incubated with the Pyrimidine Ether Derivative for 30 minutes. A cAMP standard curve was also created in each assay according to the kit protocol. Standard concentrations of cAMP in stimulation buffer (6 μl) were added to white 384 well plates. Subsequently, 6 μl of 1:100 anti-cAMP antibody was added to each well. Following the 30 minute incubation period, 12 μl of detection mix (included in kit) was added to all wells and incubated for 2-3 hours at room temperature. Fluorescence was detected on the plates using an Envision instrument. The level of cAMP in each well is determined by extrapolation from the cAMP standard curve.

EC50	SMILES
100 to 200 nM	CC1(OC(=O)N2CC3COCC(C2)C3Oc2ncnc(OC3CCN(S(=O)(=O)C4CC4)CC3)c2F)CC1 (stereo not drawn) [Compound 4]
< 100 nM	CC(C)S(=O)(=O)N1CCC(Oc2ncnc(OC3C4COCC3CN(C(=O)OC3(C)CC3)C4)c2F)CC1 (stereo not drawn) [Compound 5]
100 to 200 nM	COCCS(=O)(=O)N1CCC(Oc2ncnc(OC3C4COCC3CN(C(=O)OC3(C)CC3)C4)c2F)CC1 (stereo not drawn) [Compound 8]
< 100 nM	CS(=O)(=O)N1CCC(Oc2ncnc(OC3C4COCC3CN(c3ncc(Cl)cn3)C4)c2F)CC1 (stereo not drawn) [Compound 10]
500 to 1000 nM	CC(C)(C)OC(=O)N1CCC(Oc2ncnc(OC3C4COCC3CN(C(=O)OC3(C)CC3)C4)c2F)CC1 (stereo not drawn) [Compound 1]
500 to 1000 nM	CC(C)C(=O)N1CCC(Oc2ncnc(OC3C4COCC3CN(C(=O)OC3(C)CC3)C4)c2F)CC1 (stereo not drawn) [Compound 9]
100 to 200 nM	CC1(OC(=O)N2CC3COCC(C2)C3Oc2ncnc(OC3CCN(S(=O)(=O)C4CCCC4)CC3)c2F)CC1 (stereo not drawn) [Compound 7]
< 100 nM	CCCS(=O)(=O)N1CCC(Oc2ncnc(OC3C4COCC3CN(C(=O)OC3(C)CC3)C4)c2F)CC1 (stereo not drawn) [Compound 11]
500 to 1000 nM	CC1(OC(=O)N2CC3COCC(C2)C3Oc2ncnc(OC3CCN(S(=O)(=O)C(F)(F)F)CC3)c2F)CC1 (stereo not drawn) [Compound 6]
< 100 nM	CC1(OC(=O)N2CC3COCC(C2)C3Oc2ncnc(OC3CCN(S(=O)(=O)CCC(F)(F)F)CC3)c2F)CC1 (stereo not drawn) [Compound 3]
100 to 200 nM	CC1(OC(=O)N2CC3COCC(C2)C3Oc2ncnc(OC3CCN(S(C)(=O)=O)CC3)c2F)CC1 (stereo not drawn) [Compound 2]
< 100 nM	CCS(=O)(=O)N1CCC(Oc2ncnc(OC3C4COCC3CN(C(=O)OC3(C)CC3)C4)c2F)CC1 (stereo not drawn) [Compound 12]
